Data from PubChem BioAssay AID977614 (Broad Institute, 2014).
Active and inactive are the calls of the source.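 How the source made its calls: active means parasite count per well reduced by over 3 SD from the mean, with host cell number above 80% of untreated; inactive means the rest.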

Test system: L. donovani amastigotes in THP-1 macrophages, DAPI imaging, 72 h
Assay: antileishmanial activity in infected macrophages – imaging, THP-1 host macrophages, single concentration (AID 977614);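 further: signal is the parasite per host cell ratio from DAPI stained kinetoplasts and nuclei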

SMILES | AC50
C[C@H]1CN([C@@H](C)CO)C(=O)CCCn2nncc2CO[C@@H]1CN(C)Cc1ccc2c(c1)OCCN2C | > 10 µM (inactive)
CCC(=O)N1[C@@H](CO)[C@@H]2c3ccccc3N(S(=O)(=O)c3ccc(F)cc3)C[C@@H]21 | > 10 µM (inactive)
Cc1cccc(S(=O)(=O)N2C[C@H]3[C@@H](c4ccccc42)[C@H](CO)N3Cc2ccc3c(c2)OCO3)c1 | > 10 µM (inactive)
CCN(C[C@@H]1[C@@H](c2ccccc2)[C@H](CO)N1C(=O)COC)S(C)(=O)=O | > 10 µM (inactive)
CNC[C@H]1OCc2cnnn2CCCC(=O)N([C@H](C)CO)C[C@H]1C | > 10 µM (inactive)
O=C(NC[C@H]1[C@H](c2ccccc2)[C@H](CO)N1C(=O)C1CCC1)NC1CCCC1 | > 10 µM (inactive)
O=C(NC[C@H]1[C@@H](c2ccccc2)[C@H](CO)N1C(=O)C1CCC1)NC1CCCC1 | > 10 µM (inactive)
OC[C@H]1[C@@H]2c3ccccc3NC[C@@H]2N1Cc1cccnc1 | > 10 µM (inactive)
C[C@H]1CN([C@@H](C)CO)C(=O)CCCn2cc(nn2)CO[C@@H]1CN(C)C(=O)c1ccc(N2CCN(C)CC2)cc1 | > 10 µM (inactive)
C/C=C/c1ccc([C@H]2[C@@H](CO)N(S(C)(=O)=O)[C@@H]2CN(C(C)=O)C(C)C)cc1 | > 10 µM (inactive)
COCC(=O)N1[C@H](CO)[C@H]2c3ccccc3N(C(=O)c3cccnc3)C[C@H]21 | > 10 µM (inactive)
C/C=C/c1ccc([C@@H]2[C@@H](CO)N(C(C)=O)[C@@H]2CN(CC)C(=O)CN(C)C)cc1 | > 10 µM (inactive)
C/C=C/c1ccc([C@H]2[C@@H](CO)N(c3nc(C)c(C)s3)[C@@H]2CNCC(C)C)cc1 | > 10 µM (inactive)
Cc1noc(C)c1NC(=O)N(C)C[C@@H]1OCc2cnnn2CCCC(=O)N([C@@H](C)CO)C[C@@H]1C | > 10 µM (inactive)
Cc1noc(C)c1S(=O)(=O)N(C)C[C@@H]1OCc2cn(nn2)CCCC(=O)N([C@H](C)CO)C[C@H]1C | > 10 µM (inactive)
COCC(=O)N1C[C@@H]2[C@H](c3ccccc31)[C@H](CO)N2C(=O)c1ccccc1F | > 10 µM (inactive)

SMILES | AC50
O=C(c1ccccn1)N1C[C@H]2[C@@H](c3ccccc31)[C@@H](CO)N2C(=O)C1CCCCC1 | > 10 µM (inactive)
C[C@@H]1CN([C@@H](C)CO)C(=O)CCCn2nncc2CO[C@H]1CN(C)S(=O)(=O)c1ccc(Oc2ccccc2)nc1 | > 10 µM (inactive)
C[C@@H]1CN([C@H](C)CO)C(=O)CCCn2nncc2CO[C@H]1CN(C)C(=O)Nc1ccc(-c2cccs2)cc1 | > 10 µM (inactive)
O=S(=O)(c1ccccc1)N1[C@H](CO)[C@@H]2c3ccccc3NC[C@@H]21 | > 10 µM (inactive)
O=C(Cc1ccccn1)N1[C@@H]2CNc3ccccc3[C@@H]2[C@@H]1CO | > 10 µM (inactive)
C/C=C/c1ccc([C@H]2[C@@H](CO)N(C(C)=O)[C@H]2CNC(=O)c2ccccc2)cc1 | > 10 µM (inactive)
O=C(C1CCOCC1)N1C[C@@H]2[C@H](c3ccccc31)[C@@H](CO)N2C(=O)Cc1ccccn1 | > 10 µM (inactive)
O=C(Cc1cccnc1)N1[C@H](CO)[C@H](c2ccccc2)[C@@H]1CNCC1CCC1 | > 10 µM (inactive)
O=S(=O)(NC[C@H]1[C@@H](c2ccccc2)[C@@H](CO)N1CC1CC1)c1ccccc1 | > 10 µM (inactive)
O=C(NC[C@H]1[C@H](c2ccccc2)[C@H](CO)N1Cc1cccnc1)c1ccccn1 | > 10 µM (inactive)
C[C@H]1CN([C@@H](C)CO)C(=O)CCCn2nncc2CO[C@H]1CN(C)CC1CCCCC1 | > 10 µM (inactive)
CN(C[C@H]1[C@H](c2ccccc2)[C@@H](CO)N1Cc1ccccn1)S(C)(=O)=O | > 10 µM (inactive)
COc1ccccc1C(=O)N1C[C@H]2[C@@H](c3ccccc31)[C@@H](CO)N2CC1CCCC1 | > 10 µM (inactive)
O=C(Nc1ccc(F)cc1)N1[C@@H](CO)[C@@H]2c3ccccc3NC[C@@H]21 | > 10 µM (inactive)
O=C(NC[C@@H]1[C@H](c2ccccc2)[C@@H](CO)N1C(=O)Cc1ccncc1)C1CCC1 | > 10 µM (inactive)
